Measured values reported in ChEMBL document CHEMBL1149029, “New cycloartanol sulfates from the alga Tydemania expeditionis: inhibitors of the protein tyrosine kinase pp60v-src” (J Nat Prod, 1994).
pIC50: −log10 of the molar value.

test: Inhibition of Rous sarcoma virus pp60v-src

In order of falling pIC50:
1. CC(C)CC(=O)C[C@@H](C)[C@H]1CC[C@@]2(C)[C@@H]3CC[C@H]4[C@](C)(COS(=O)(=O)O)[C@@H](OS(=O)(=O)O)CC[C@@]45C[C@@]35CC[C@]12C  4.49
2. CC(C)=CC(=O)C[C@@H](C)[C@H]1CC[C@@]2(C)[C@@H]3CC[C@H]4[C@](C)(COS(=O)(=O)O)[C@@H](OS(=O)(=O)O)CC[C@@]45C[C@@]35CC[C@]12C  4.41
3. CC(C)CC(O)C[C@@H](C)[C@H]1CC[C@@]2(C)[C@@H]3CC[C@H]4[C@](C)(COS(=O)(=O)O)[C@@H](OS(=O)(=O)O)CC[C@@]45C[C@@]35CC[C@]12C (stereo partly drawn)  4.00
